Results taken from US20250019387A1 (Frontier Medicines Corporation, priority 0001, published 2025).

target: KRAS G12C and cRAF (Ras-binding domain) interaction (Homo sapiens (Human), UniProt P01116, C118S/C51S/C80L/G12C); assay: Inhibition of KRAS G12C and cRAF binding (AlphaScreen); conditions: GMPPNP-loaded KRAS G12C, 19-20 hours incubation with compound; read-out: IC50 (Inhibition of KRAS G12C and cRAF Binding)
Procedure, shortened: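 Compounds (DMSO) preincubated 19-20 h at room temperature, then RBD with streptavidin donor and glutathione acceptor beads added in 25 mM Hepes pH 7.4, 150 mM NaCl, 5 mM MgCl2, 0.01% Triton X-100, 2% DMSO for 60-90 min. Emission 570 nm (excitation 680 nm); IC50 by 4-parameter fit. Counter-screen used biotin-AviTag-GST instead of RBD.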

Chain of KRAS G12C and cRAF (Ras-binding domain) interaction (P01116 other isoform, or with tags, fused parts or gaps G12C/C51S/C80L/C118S): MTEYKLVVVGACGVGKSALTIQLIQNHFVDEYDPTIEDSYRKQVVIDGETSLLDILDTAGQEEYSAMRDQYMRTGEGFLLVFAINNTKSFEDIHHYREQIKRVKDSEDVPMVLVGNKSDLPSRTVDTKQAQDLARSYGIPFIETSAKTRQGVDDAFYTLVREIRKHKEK

Compound | IC50
Cc1cc(/C=C/C(=O)N2CC[C@@H](N(C)c3nc(OC[C@@]45CCCN4C[C@H](F)C5)nc4c(F)c(-c5cccc6ccc(F)c(F)c56)ncc34)C2)nc(C)n1 [Example 203, (E)-1-((R)-3-((7-(7,8-difluoronaphthalen-1-yl)-8-fluoro-2-(((2R,7aS)-2-fluorohexahydro-1H-pyrrolizin-7a-yl)methoxy)pyrido[4,3-d]pyrimidin-4-yl)(methyl)amino)pyrrolidin-1-yl)-3-(2,6-dimethylpyrimidin-4-yl)prop-2-en-1-one] | 10 to 100 nM
COC(=O)/C=C/C(=O)N1C[C@H](N(C)c2nc(OC[C@@H]3CCCN3C)nc3c2CCN(c2cccc4cccc(Cl)c24)C3)C[C@H]1C [Example 17, methyl(E)-4-((2R,4R)-4-((7-(8-chloronaphthalen-1-yl)-2-(((S)-1-methylpyrrolidin-2-yl)methoxy)-5,6,7,8-tetrahydropyrido[3,4-d]pyrimidin-4-yl)(methyl)amino)-2-methylpyrrolidin-1-yl)-4-oxobut-2-enoate] | 10 to 100 nM
Cc1ncc(F)c(/C=C/C(=O)N2CC[C@@H](N(C)c3nc(OCC45CCCN4CCC5)nc4c(F)c(-c5cccc6ccc(F)c(Cl)c56)ncc34)C2)n1 [Example 244, (R,E)-1-(3-((7-(8-chloro-7-fluoronaphthalen-1-yl)-8-fluoro-2-((tetrahydro-1H-pyrrolizin-7a(5H)-yl)methoxy)pyrido[4,3-d]pyrimidin-4-yl)(methyl)amino)pyrrolidin-1-yl)-3-(5-fluoro-2-methylpyrimidin-4-yl)prop-2-en-1-one] | 100 to 500 nM
C=CC(=O)N1CC[C@@H](N(C)c2nc(OCC34CCCN3CCC4)nc3c2CCN(c2cccc4cccc(Cl)c24)C3)C1 [Example 19, (R)-1-(3-((7-(8-chloronaphthalen-1-yl)-2-((tetrahydro-1H-pyrrolizin-7a(5H)-yl)methoxy)-5,6,7,8-tetrahydropyrido[3,4-d]pyrimidin-4-yl)(methyl)amino)pyrrolidin-1-yl)prop-2-en-1-one] | 10 to 100 nM
CN(c1nc(OCC23CCCN2CCC3)nc2c(F)c(-c3cccc4cccc(Cl)c34)ncc12)[C@@H]1CCN(C(=O)/C=C/c2nc(C(C)(C)C)no2)C1 [Example 147, (R,E)-3-(3-(tert-butyl)-1,2,4-oxadiazol-5-yl)-1-(3-((7-(8-chloronaphthalen-1-yl)-8-fluoro-2-((hexahydro-1H-pyrrolizin-7a-yl)methoxy)pyrido[4,3-d]pyrimidin-4-yl)(methyl)amino)pyrrolidin-1-yl)prop-2-en-1-one] | 10 to 100 nM
Cc1nccc(/C=C/C(=O)N2CC(CN(C)c3nc(OC[C@@]45CCCN4C[C@H](F)C5)nc4c3CCN(c3cccc5cccc(Cl)c35)C4)C2)n1 [Example 69, (E)-1-(3-(((7-(8-chloronaphthalen-1-yl)-2-(((2R,7aS)-2-fluorohexahydro-1H-pyrrolizin-7a-yl)methoxy)-5,6,7,8-tetrahydropyrido[3,4-d]pyrimidin-4-yl)(methyl)amino)methyl)azetidin-1-yl)-3-(2-methylpyrimidin-4-yl)prop-2-en-1-one] | 100 to 500 nM
Cc1coc(/C=C/C(=O)N2CC[C@@H](N(C)c3nc(OCC45CCCN4CCC5)nc4c(F)c(-c5cccc6cccc(Cl)c56)ncc34)C2)n1 [Example 143, (R,E)-1-(3-((7-(8-chloronaphthalen-1-yl)-8-fluoro-2-((tetrahydro-1H-pyrrolizin-7a(5H)-yl)methoxy)pyrido[4,3-d]pyrimidin-4-yl)(methyl)amino)pyrrolidin-1-yl)-3-(4-methyloxazol-2-yl)prop-2-en-1-one] | 100 to 500 nM
C[C@@H](F)c1noc(/C=C/C(=O)N2CC(CN(C)c3nc(OC[C@@]45CCCN4C[C@H](F)C5)nc4c(F)c(-c5cccc6cccc(Cl)c56)ncc34)C2)n1 [Example 83, (E)-1-(3-(((7-(8-chloronaphthalen-1-yl)-8-fluoro-2-(((2R,7aS)-2-fluorotetrahydro-1H-pyrrolizin-7a(5H)-yl)methoxy)pyrido[4,3-d]pyrimidin-4-yl)(methyl)amino)methyl)azetidin-1-yl)-3-(3-((R)-1-fluoroethyl)-1,2,4-oxadiazol-5-yl)prop-2-en-1-one] | < 10 nM

Now from value to compound:

IC50 | Compound
10 to 100 nM | CC(C)N1CC[C@@H]1/C=C/C(=O)N1CC[C@@H](N(C)c2nc(OC[C@@]34CCCN3C[C@H](F)C4)nc3c(F)c(-c4cccc5cccc(Cl)c45)ncc23)C1 [Example 232, (E)-1-((R)-3-((7-(8-chloronaphthalen-1-yl)-8-fluoro-2-(((2R,7aS)-2-fluorotetrahydro-1H-pyrrolizin-7a(5H)-yl)methoxy)pyrido[4,3-d]pyrimidin-4-yl)(methyl)amino)pyrrolidin-1-yl)-3-((R)-1-isopropylazetidin-2-yl)prop-2-en-1-one]
> 500 nM | C=CC(=O)N1CC[C@@H](N(C)c2nc(OC[C@@]34CCCN3C[C@H](F)C4)nc3c(F)c(-c4cccc5cccc(C6CC6)c45)ncc23)C1 [Example 304, 1-((R)-3-((7-(8-cyclopropylnaphthalen-1-yl)-8-fluoro-2-(((2R,7aS)-2-fluorotetrahydro-1H-pyrrolizin-7a(5H)-yl)methoxy)pyrido[4,3-d]pyrimidin-4-yl)(methyl)amino)pyrrolidin-1-yl)prop-2-en-1-one]
100 to 500 nM | C=CC(=O)N1CC[C@@H](N(CCC#N)c2nc(OC[C@@]34CCCN3C[C@H](F)C4)nc3c(F)c(-c4cccc5cccc(Cl)c45)ncc23)C1 [Example 264, 3-(((R)-1-acryloylpyrrolidin-3-yl)(7-(8-chloronaphthalen-1-yl)-8-fluoro-2-(((2R,7aS)-2-fluorohexahydro-1H-pyrrolizin-7a-yl)methoxy)pyrido[4,3-d]pyrimidin-4-yl)amino)propanenitrile]
10 to 100 nM | CN1CC(C#CC(=O)N2CC[C@@H](N(C)c3nc(OC[C@@]45CCCN4C[C@H](F)C5)nc4c(F)c(-c5cccc6cccc(Cl)c56)ncc34)C2)C1 [Example 67, 1-((R)-3-((7-(8-chloronaphthalen-1-yl)-8-fluoro-2-(((2R,7aS)-2-fluorohexahydro-1H-pyrrolizin-7a-yl)methoxy)pyrido[4,3-d]pyrimidin-4-yl)(methyl)amino)pyrrolidin-1-yl)-3-(1-methylazetidin-3-yl)prop-2-yn-1-one]

same assay, conditions: additional exemplary compounds; KRAS G12C and cRAF binding; read-out: RAF1 RBD IC50

Compound | IC50
CN(C)C(=O)/C=C/C(=O)N1CC(CN(C)c2nc(OCC34CCCN3CCC4)nc3c(F)c(-c4cccc5cccc(Cl)c45)ncc23)C1 | > 500 nM
CN(c1nc(OCC23CCCN2CCC3)nc2c(F)c(-c3cccc4cccc(Cl)c34)ncc12)[C@@H]1CCN(C(=O)/C=C/c2ccncn2)C1 | > 500 nM
CCN(CC)C/C=C/S(=O)(=O)CCN(C)c1nc(OC[C@@]23CCCN2C[C@H](F)C3)nc2c1CCN(c1cccc3cccc(Cl)c13)C2 | < 10 nM
C=CC(=O)N1CC[C@H]2[C@H]1CCN2c1nc(OCC23CCCN2CCC3)nc2c1CCN(c1cccc3cccc(Cl)c13)C2 | > 500 nM
O=C(/C=C/CN1CCOCC1)N1CC2CC(C1)N2c1nc(OC[C@@]23CCCN2C[C@H](F)C3)nc2c(F)c(-c3cccc4cccc(Cl)c34)ncc12 | > 500 nM
CN(C)C/C=C/C(=O)N1CC[C@@H](N(C)c2nc(OCC34CCCN3CCC4)nc3c(F)c(-c4cccc5cccc(Cl)c45)ncc23)C1 | 10 to 100 nM
C=CC(=O)N1CC(CN(C)c2nc(OC[C@@]34CCCN3C[C@@H](F)C4)nc3c2CCN(c2cccc4cccc(Cl)c24)C3)C1 | > 500 nM
Cc1nccc(/C=C/C(=O)N2CC3CC(C2)N3c2nc(OC[C@@]34CCCN3C[C@H](F)C4)nc3c(F)c(-c4cccc5cccc(Cl)c45)ncc23)n1 | > 500 nM
C=CS(=O)(=O)[C@H]1CC[C@@H](N(C)c2nc(OCC34CCCN3CCC4)nc3c2CCN(c2cccc4cccc(Cl)c24)C3)C1 | 10 to 100 nM
C=CC(=O)[C@@H](C)CN(C)c1nc(OC[C@@H]2CCCN2C)nc2c1CCN(c1cccc3ccccc13)C2 | 10 to 100 nM
C=CC(=O)N1C[C@@H](N(C)c2nc(OC[C@@]34CCCN3C[C@H](F)C4)nc3c2CCN(c2cccc4cccc(Cl)c24)C3)C[C@@H]1CC#N | > 500 nM

Now from value to compound:

IC50 | Compound
10 to 100 nM | C=CC(=O)N1C[C@H](N(C)c2nc(OC[C@@]34CCCN3C[C@H](F)C4)nc3c(F)c(-c4cccc5cccc(Cl)c45)ncc23)CC1C#N (stereo partly drawn)
10 to 100 nM | C=CC(=O)N1CC[C@@H](N(C)c2nc(OC[C@@]34CCCN3C[C@H](F)C4)nc3c(F)c(-c4cccc5ccc(F)c(Cl)c45)ncc23)C1
> 500 nM | O=C(/C=C/CN1CCOCC1)N1C[C@@H]2C[C@H]1CN2c1nc(OC[C@@]23CCCN2C[C@H](F)C3)nc2c(F)c(-c3cccc4cccc(Cl)c34)ncc12
> 500 nM | C=CC(=O)N1C[C@@H](F)[C@@H](N(C)c2nc(OC[C@@]34CCCN3C[C@H](F)C4)nc3c(F)c(-c4cccc5cccc(Cl)c45)ncc23)C1
> 500 nM | C=CC(=O)N1CC[C@@H](F)[C@@H](N(C)c2nc(OC[C@@]34CCCN3C[C@H](F)C4)nc3c(F)c(-c4cccc5cccc(Cl)c45)ncc23)C1
> 500 nM | N#CN1CC[C@H]2[C@@H]1CCN2c1nc(OC[C@@]23CCCN2C[C@H](F)C3)nc2c(F)c(-c3cccc4cccc(Cl)c34)ncc12
10 to 100 nM | CN(c1nc(OC[C@@]23CCCN2C[C@H](F)C3)nc2c(F)c(-c3cccc4cccc(Cl)c34)ncc12)[C@@H]1CCN(C#N)C1
> 500 nM | CC(C)c1noc(/C=C/C(=O)N2C[C@H]3C[C@@H]2CN3c2nc(OC[C@@]34CCCN3C[C@H](F)C4)nc3c(F)c(-c4cccc5cccc(Cl)c45)ncc23)n1
> 500 nM | C=CC(=O)N1C[C@@H](O)[C@@H](Nc2nc(OC[C@@]34CCCN3C[C@H](F)C4)nc3c(F)c(-c4cccc5cccc(Cl)c45)ncc23)C1
> 500 nM | O=C(/C=C/CN1CCOCC1)N1CCCN(c2nc(OC[C@@]34CCCN3C[C@H](F)C4)nc3c(F)c(-c4cccc5cccc(Cl)c45)ncc23)CC1
